Experiments:
[1] = biological target: T1, Histone-lysine N-methyltransferase EHMT2 (Homo sapiens, UniProt Q96KQ7); experiment: Inhibition of G9a (unknown origin)
T1 sequence (Q96KQ7 whole entry): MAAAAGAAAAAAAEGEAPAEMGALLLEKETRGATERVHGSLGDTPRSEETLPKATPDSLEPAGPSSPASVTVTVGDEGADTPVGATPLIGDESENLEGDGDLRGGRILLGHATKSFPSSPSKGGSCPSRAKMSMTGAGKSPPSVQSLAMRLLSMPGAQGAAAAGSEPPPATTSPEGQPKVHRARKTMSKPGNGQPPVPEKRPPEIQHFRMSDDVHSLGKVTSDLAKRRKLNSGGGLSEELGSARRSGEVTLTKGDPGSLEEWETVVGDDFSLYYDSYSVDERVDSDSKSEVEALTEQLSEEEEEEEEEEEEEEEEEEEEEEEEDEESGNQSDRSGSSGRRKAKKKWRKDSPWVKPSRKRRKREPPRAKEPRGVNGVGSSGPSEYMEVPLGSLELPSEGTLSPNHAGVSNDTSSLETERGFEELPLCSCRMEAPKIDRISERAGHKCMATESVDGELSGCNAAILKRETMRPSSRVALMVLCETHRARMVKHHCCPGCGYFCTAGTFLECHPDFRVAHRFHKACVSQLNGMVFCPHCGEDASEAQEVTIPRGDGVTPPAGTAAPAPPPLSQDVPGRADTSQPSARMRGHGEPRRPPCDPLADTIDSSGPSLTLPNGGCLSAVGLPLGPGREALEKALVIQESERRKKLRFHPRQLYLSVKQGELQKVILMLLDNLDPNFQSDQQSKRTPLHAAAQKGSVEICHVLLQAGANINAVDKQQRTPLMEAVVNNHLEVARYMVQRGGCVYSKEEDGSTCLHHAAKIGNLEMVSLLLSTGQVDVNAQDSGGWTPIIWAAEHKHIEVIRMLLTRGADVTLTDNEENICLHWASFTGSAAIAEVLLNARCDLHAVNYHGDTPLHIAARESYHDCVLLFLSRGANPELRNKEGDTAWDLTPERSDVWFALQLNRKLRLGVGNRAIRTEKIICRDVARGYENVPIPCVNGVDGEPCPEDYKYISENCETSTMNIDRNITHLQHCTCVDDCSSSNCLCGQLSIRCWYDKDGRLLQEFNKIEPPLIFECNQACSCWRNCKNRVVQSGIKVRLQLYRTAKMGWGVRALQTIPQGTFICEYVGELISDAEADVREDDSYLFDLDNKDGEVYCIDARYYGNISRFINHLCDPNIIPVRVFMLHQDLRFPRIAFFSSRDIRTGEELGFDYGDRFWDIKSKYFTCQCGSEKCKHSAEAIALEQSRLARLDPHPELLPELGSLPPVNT

MCF7 = experiment: Antiproliferative activity against human MCF7 cells assessed as reduction in cell growth measured after 72 hrs by MTT assay; format: functional, cell-based; conditions: MCF7, 72 h
[2] = biological target: T2, Histone-lysine N-methyltransferase EHMT1/EHMT2 (Homo sapiens, UniProt Q9H9B1+Q96KQ7); experiment: Inhibition of G9a/GLP in human MDA-MB-231 cells assessed as reduction in H3K9 dimethylation incubated for 3 days by Western blotting analysis; format: cell-based
T2 sequence (Q9H9B1 whole entry): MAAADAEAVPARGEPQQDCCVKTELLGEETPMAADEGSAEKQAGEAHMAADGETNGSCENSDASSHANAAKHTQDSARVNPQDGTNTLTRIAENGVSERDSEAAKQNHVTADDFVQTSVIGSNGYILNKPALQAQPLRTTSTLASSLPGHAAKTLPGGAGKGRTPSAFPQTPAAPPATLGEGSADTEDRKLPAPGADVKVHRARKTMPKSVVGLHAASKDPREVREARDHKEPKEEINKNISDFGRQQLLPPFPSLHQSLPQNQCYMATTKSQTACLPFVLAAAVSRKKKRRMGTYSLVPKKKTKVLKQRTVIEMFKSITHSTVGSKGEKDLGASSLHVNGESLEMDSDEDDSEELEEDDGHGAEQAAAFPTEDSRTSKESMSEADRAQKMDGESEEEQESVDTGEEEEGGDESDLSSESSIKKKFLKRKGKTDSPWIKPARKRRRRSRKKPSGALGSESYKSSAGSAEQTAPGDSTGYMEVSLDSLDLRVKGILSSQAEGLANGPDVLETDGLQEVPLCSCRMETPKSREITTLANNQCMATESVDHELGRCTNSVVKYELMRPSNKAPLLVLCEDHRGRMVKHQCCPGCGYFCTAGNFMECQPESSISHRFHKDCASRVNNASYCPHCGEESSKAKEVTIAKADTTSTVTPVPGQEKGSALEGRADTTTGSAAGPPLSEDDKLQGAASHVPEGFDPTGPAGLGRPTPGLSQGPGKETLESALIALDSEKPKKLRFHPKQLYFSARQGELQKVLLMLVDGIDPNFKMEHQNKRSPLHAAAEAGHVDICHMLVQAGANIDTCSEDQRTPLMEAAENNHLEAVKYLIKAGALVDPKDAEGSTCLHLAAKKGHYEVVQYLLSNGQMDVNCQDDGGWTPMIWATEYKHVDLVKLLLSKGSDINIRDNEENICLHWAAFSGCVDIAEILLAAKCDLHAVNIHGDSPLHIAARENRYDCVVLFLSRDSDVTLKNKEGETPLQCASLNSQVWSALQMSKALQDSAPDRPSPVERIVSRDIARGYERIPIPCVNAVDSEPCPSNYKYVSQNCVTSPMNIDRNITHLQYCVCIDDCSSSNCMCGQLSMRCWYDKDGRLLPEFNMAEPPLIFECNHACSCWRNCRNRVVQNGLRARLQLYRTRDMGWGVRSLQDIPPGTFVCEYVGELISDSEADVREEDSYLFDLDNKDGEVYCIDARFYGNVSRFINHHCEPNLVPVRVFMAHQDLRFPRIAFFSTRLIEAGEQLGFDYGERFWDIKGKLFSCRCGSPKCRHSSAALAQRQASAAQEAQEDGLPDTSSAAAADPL
T2 sequence (Q96KQ7 whole entry): T1 sequence (Q96KQ7 whole entry)

A549 = experiment: Antiproliferative activity against human A549 cells assessed as reduction in cell viability measured after 72 hrs by MTT assay; format: functional, cell-based; conditions: A549, 72 h
[3] = biological target: DNA (cytosine-5)-methyltransferase 1 (Homo sapiens, UniProt P26358); experiment: Inhibition of DNMT1 (unknown origin)
DNA (cytosine-5)-methyltransferase 1, sequence (P26358 whole entry): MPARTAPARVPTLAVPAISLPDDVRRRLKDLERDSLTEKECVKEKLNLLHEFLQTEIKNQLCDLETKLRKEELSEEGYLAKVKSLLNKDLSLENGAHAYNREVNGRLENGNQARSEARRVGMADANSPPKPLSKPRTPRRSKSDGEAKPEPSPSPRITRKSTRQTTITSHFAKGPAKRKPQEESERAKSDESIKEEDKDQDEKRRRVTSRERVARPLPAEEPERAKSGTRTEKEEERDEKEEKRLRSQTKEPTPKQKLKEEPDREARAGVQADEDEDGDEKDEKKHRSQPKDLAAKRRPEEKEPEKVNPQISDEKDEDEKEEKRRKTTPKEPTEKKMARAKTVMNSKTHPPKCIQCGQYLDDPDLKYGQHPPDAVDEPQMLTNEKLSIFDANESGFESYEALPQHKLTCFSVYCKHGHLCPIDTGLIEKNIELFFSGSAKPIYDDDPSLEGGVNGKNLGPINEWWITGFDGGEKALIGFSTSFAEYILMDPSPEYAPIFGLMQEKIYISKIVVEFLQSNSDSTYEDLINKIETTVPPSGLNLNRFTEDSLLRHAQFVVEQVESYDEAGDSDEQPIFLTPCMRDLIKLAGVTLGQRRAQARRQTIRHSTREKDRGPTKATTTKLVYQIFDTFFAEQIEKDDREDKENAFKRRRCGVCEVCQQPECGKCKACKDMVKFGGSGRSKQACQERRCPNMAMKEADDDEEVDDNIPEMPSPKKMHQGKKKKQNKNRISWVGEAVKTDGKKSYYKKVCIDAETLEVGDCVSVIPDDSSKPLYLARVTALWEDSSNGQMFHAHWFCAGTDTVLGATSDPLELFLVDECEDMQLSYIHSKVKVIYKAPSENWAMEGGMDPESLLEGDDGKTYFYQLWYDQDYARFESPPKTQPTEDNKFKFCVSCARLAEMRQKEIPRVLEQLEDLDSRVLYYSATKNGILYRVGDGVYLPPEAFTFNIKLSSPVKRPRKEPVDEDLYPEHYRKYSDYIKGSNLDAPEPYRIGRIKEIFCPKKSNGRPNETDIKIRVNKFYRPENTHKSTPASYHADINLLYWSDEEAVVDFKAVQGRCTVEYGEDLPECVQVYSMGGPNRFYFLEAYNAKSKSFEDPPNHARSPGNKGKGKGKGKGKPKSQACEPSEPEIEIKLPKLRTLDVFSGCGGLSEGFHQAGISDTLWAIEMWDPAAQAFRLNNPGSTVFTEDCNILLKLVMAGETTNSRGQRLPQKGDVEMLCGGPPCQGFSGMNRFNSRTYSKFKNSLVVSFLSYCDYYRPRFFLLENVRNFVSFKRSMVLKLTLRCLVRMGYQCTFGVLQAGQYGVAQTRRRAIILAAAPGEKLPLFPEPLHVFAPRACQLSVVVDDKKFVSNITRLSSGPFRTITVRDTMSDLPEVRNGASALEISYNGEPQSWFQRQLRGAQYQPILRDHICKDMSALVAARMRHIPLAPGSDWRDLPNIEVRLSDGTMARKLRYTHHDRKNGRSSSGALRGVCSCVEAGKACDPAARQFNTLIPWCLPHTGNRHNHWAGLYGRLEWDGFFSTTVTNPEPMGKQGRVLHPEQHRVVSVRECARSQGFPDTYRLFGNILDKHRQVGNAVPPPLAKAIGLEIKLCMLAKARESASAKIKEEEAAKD

[4] = Cmax in mouse at 25 mg/kg, ip; format: ADME, organism-based; conditions: in vivo
PANC-1 = experiment: Antiproliferative activity against human PANC-1 cells assessed as reduction in cell growth incubated for 24 hrs by MTT assay; format: functional, cell-based; conditions: PANC-1, 24 h
K562 = experiment: Antiproliferative activity against human K562 cells assessed as reduction in cell growth measured after 72 hrs by MTT assay; format: functional, cell-based; conditions: K562, 72 h
[5] = biological target: von Hippel-Lindau disease tumor suppressor/Histone-lysine N-methyltransferase EHMT2 (Homo sapiens, UniProt Q96KQ7+P40337); experiment: PROTAC activity at G9a/VHL in human 22Rv1 cells assessed as induction of G9a degradation at 1 uM incubated for 24 hrs by Western blot analysis; format: cell-based
von Hippel-Lindau disease tumor suppressor/Histone-lysine N-methyltransferase EHMT2, sequence (P40337 whole entry, one chain of several): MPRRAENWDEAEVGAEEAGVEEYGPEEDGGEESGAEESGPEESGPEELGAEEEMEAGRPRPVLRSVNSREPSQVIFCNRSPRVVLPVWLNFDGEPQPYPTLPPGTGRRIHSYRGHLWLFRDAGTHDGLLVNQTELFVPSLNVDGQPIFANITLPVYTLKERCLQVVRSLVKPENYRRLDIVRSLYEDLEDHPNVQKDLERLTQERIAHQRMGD

[6] = biological target: von Hippel-Lindau disease tumor suppressor/Histone-lysine N-methyltransferase EHMT1 (Homo sapiens, UniProt Q9H9B1+P40337); experiment: PROTAC activity at GLP/VHL in human 22Rv1 cells assessed as induction of GLP degradation at 1 uM incubated for 24 hrs by Western blot analysis; format: cell-based
von Hippel-Lindau disease tumor suppressor/Histone-lysine N-methyltransferase EHMT1, sequence (P40337 whole entry, one chain of several): as above

Compound	IC50 [1] [nM]	IC50 [3] [nM]	also measured
COc1cc2nc(N3CCOCC3)nc(NC3CCN(C)CC3)c2cc1OC	13	–	–
COc1ccc2c(NC3CCN(Cc4ccccc4)CC3)nc(NCCNC(=O)CCCCC(=O)NO)nc2c1	–	–	EC50 (MCF7): 37400 nM; IC50 [2]: 7136 nM; EC50 (A549): 36200 nM
Cc1c(C(=O)N[C@@H](CCC2CC2)C(=O)Nc2ccc(C#N)cc2)[nH]c2c1C(=O)CC(C)(C)C2	–	27	Cmax [4]: 42.4 µM
COc1cc2c(C3CCOCC3)nc(N)nc2cc1OCCCN1CCCC1	126	–	–
CCN1C[C@H](NC(=O)c2cc3cc(Cl)ccc3[nH]2)[C@@H](OC)C1	–	1.8	–
COC(=O)c1ccc2c(c1)nc(NC(=O)c1ccccc1)n2CCCc1ccccc1	–	–	EC50 (PANC-1): 5000 nM
CCOc1ccc(Nc2cc(C)nc3ccc(Cl)cc23)cc1	67	–	–
CN(C)C(=O)Nc1ccc(CN2CCC(C(O)(c3ccc(C(F)(F)F)cc3)c3ccc(C(F)(F)F)cc3)CC2)cc1	–	6500	IC50 (K562): 1700 nM
Cc1ccc(SS(=O)(=O)c2ccc(C)cc2)cc1	–	3060	–
COc1cc2c(cc1OC)-c1c(C)c3cc(OC)c(OC)cc3c[n+]1CC2	–	16300	–
COc1cc2c(NC3CCN(CCCC(=O)NCCCCCCCCNc4cccc5c4C(=O)N(C4CCC(=O)NC4=O)C5=O)CC3)nc(C3CCCCC3)nc2cc1OCCCN1CCCC1 (configuration not stated)	–	–	DC50 [5]: 100 nM; DC50 [6]: > 10000 nM
CCN(c1cc(-c2ccc(CN3CCOCC3)cc2)cc(C(=O)NCc2c(C)cc(C)[nH]c2=O)c1C)C1CCOCC1 [TAZEMETOSTAT]	2.9	–	–
